Results: patent US20100291543A1, “HOMOGENEOUS IN VITRO FEC ASSAYS AND COMPONENTS” (priority 2007, published 2010)
Where “and” joins values, the source holds several entries; their conditions need not be identical. Equal values may be shown once. Read-outs that look alike come from different tables or passages of the source.

How the values were obtained:
[1] = molecular target: α and ω fragments of TEM-1 beta-lactamase (Escherichia coli, UniProt P62593, A182V/V82I); format: biochemical, E. coli
Method: Nitrocefin (Merck, Australia) is a colorimetric substrate of TEM-1 beta-lactamase that changes colour from yellow to red (OD492) following hydrolysis of the β-lactam ring. […] Assays were performed using a 96-well flat bottom cell-culture plate (TPP, Australia). Nitrocefin stock solutions of 200 or 600 μM were prepared in 50 mM NaH2PO4; 150 mM NaCl; 5% DMSO (Sigma, Australia) pH 7. For each 200 μl reaction, 100 μl of the nitrocefin stock was added to 100 μl of enzyme fragments (with or without Ni^2+) in 50 mM NaH2PO4 150 mM NaCl pH 7. Depending on the final signal required, the concentration of enzyme fragments used per well ranged from 40 nM to 200 nM and the final concentration of the Ni^2+ analyte from 100 μM or 200 μM. Assay components were mixed well by pipetting, incubated for 5 minutes at room temperature. Kinetics of the nitrocefin hydrolysis were read at 492 nm using a SpectraMax190 (Molecular Devices, USA).
In an attempt to improve the signal to noise ratio of forced α and ω fragments complementation, the effect of different buffer additives such as solvents, BSA, detergents, protein denaturants and salts were investigated. […] Assays were performed as described herein.
As a low concentration of solvent could partially denature the enzyme fragments, it was investigated whether a small amount of ethanol, isopropanol, methanol, DMSO and acetonitrile would reduce natural fragment complementation and increase the signal to noise ratio. The final concentrations of each solvent tested were 15%, 7.5%, 3.75%, 1.875%, […] and 0%. Kinetics of the complementation assays was read at 492 nm for 30 minutes. The signal/noise ratio was then calculated according to the maximum rate (mOD/min) from SoftmaxPro. […]
Detergent is widely used to reduce protein-protein interaction or ELISA background; using small amount might help preventing the natural fragment complementation by keeping two fragments apart then increased the signal/noise ratio. […] Reading data collecting time was 30 minutes. The signal/noise ratio was then calculated according to the maximum rate (mOD/min) from SoftmaxPro.
To test the effect of protein denaturants on enzyme fragment complementation, nitrocefin activity assays were performed using a matrix of fragment, substrate and NiSO4 concentrations in the presence of urea or guanidine hydrochloride. In preliminary assays, the complementation of 40 nM fragments was tested in concentrations of urea ranging from 2 M to 62.5 mM and in concentrations of GuHCl that ranged from 1M to 31.25 mM. The assay was prepared as follows: 40 nM of each fragment was added to a two-fold dilution series of urea [from 2 M urea 50 mM NaH2PO4 150 mM NaCl pH7 to 62.5 mM urea 50 mM NaH2PO4 150 mM NaCl pH7] or guanidine hydrochloride [from 1 M GuHCl 50 mM NaH2PO4 150 mM NaCl pH7 to 31.25 mM GuHCl 50 mM NaH2PO4 150 mM NaCl pH7] in duplicate. To the first set of wells, NiSO4 was added to a final concentration of 100 μM, whereas the second set contained no NiSO4. The plate was incubated for 5 minutes and the kinetics read at 492 nm using a SpectroMax reader.

human IgG (human) = assay: surface plasmon resonance, same conditions as BLω-ProG
[2] = format: physicochemical
Method: The pellet from a 250 ml overnight induction was lysed in 25 ml of [6 M GuHCl-100 mM NaH2PO4 10 mM Tris pH 8] followed by a 1-hour incubation at 4° C. with shaking at 100 rpm. To enhance lysis, the suspension was sonicated in an ice bath for 5 cycles of 30 seconds on/30 seconds off using a Branson 250 sonifier. After sonication, the lysate was centrifuged at 12,000×g for 30 min (4° C.) and then passed through a 0.2 μm filter to remove cellular debris.
Recombinant His-tagged proteins were purified using a 1 ml HisTrap HP column (Amersham cat. 17-5247-01) under the control of a DuoFlow chromatography system (BioRad cat. 760-0037). The HisTrap column was equilibrated with 10 column volumes (CV) of 8 M urea 100 mM NaH2PO4 10 mM Tris pH 7.5 at a flow rate of 1 ml/min. Cleared E. coli lysates were then loaded onto the column using a Model EP-1 Econopump (BioRad cat. 731-8142) at 0.5 ml/min. The column was washed with 10 CV of 8 M Urea 100 mM NaH2PO4 10 mM Tris pH 6.3. Bound protein was refolded over a 60 CV gradient from 8 M Urea 100 mM NaH2PO4 10 mM Tris 200 mM L-arginine 100 μM GSSG pH 7.5 to 100 mM NaH2PO4 10 mM Tris 200 mM L-arginine 100 μM GSSG pH 7.5 at 1 ml/min. Histidine-tagged proteins were eluted with 10 CV of 250 mM imidazole 50 mM NaH2PO4 150 mM NaCl pH 8, and analysed by PAGE, western blotting, gel filtration and mass spectroscopy.

human IgG = assay: Surface plasmon resonance binding kinetics for human IgG; conditions: SPR
Excerpt: To confirm that the Protein G moiety of BLω-ProG was functional and suitable for testing in our HA format we assessed its binding kinetics for human IgG using surface plasmon resonance. […] A commercially available recombinant protein G, truncated to eliminate binding to human serum albumin, was included as a positive control.

[3] = test system: rabbit hyper-immune serum (anti-HSV-1 peptide); format: biochemical; conditions: with BLα-HSV1 (5 nM), hyper-immune serum 1:100
[4] = FPLC gel filtration (aggregation) of purified fragments; format: physicochemical; conditions: Purification Strategy: Denaturing CRF Ni-NTA
Excerpt: In some cases, following affinity purification of the enzyme fragments, pooled eluates were subjected to size exclusion chromatography using a Superdex200GL column (Amersham cat. 17-5175-01) under the control of a DuoFlow chromatography system (BioRad cat. 760-0037). Gel filtration was used for either polishing of purified enzyme fragments (removal of contaminating proteins) or to determine the proportion of monomeric versus aggregated enzyme fragments after on-column refolding. The protocol was as follows: equilibration with 2 CV of 50 mM NaH2PO4 150 mM NaCl, pH7 at 0.6 ml/min; injection of 250-500 μl of sample at 0.6 ml/min; and isocratic flow of 1 CV of 50 mM NaH2PO4 150 mM NaCl, pH 7 at 0.6 ml/min. See FIG. 7 for exemplary results.

[5] = Purification Strategy: Denaturing CRF Ni-NTA

## C[S+](C)[O-] [DMSO]
[1]
  concentration at which optimal signal to noise ratio was achieved: 15%

## CC#N [acetonitrile]
[1]; solvents and detergents
  concentration at which optimal signal to noise ratio was achieved: 3.75%

## CCO [ethanol]
[1]
  concentration at which optimal signal to noise ratio was achieved: 3.75%
  signal/noise ratio: 7.1 and 8.4 and 8.5 and 5.4

## c1c[nH]cn1 [imidazole]
[1]; imidazole
  concentration at which optimal signal to noise ratio was achieved: 12.5 mM
[1]; imidazole final concentration 6.25 mM
  signal/noise ratio: 5.2
[1]; imidazole final concentration 12.5 mM
  signal/noise ratio: 5.3
[1]; imidazole final concentration 25 mM
  signal/noise ratio: 3.7
[1]; imidazole final concentration 50 mM
  signal/noise ratio: 2.1
[1]; imidazole final concentration 100 mM
  signal/noise ratio: 0.8

## CC(C)O [isoproponal, isopropanol]
[1]; solvents and detergents
  concentration at which optimal signal to noise ratio was achieved: 3.75%

## CO [methanol]
[1]; solvents and detergents
  concentration at which optimal signal to noise ratio was achieved: 7.5%

## NC(N)=O [urea]
[1]; denaturant
  concentration at which optimal signal to noise ratio was achieved: 0.5 M

## Triton-X100
[1]
  concentration at which optimal signal to noise ratio was achieved: 0.3%

## Tween-20
[1]; solvents and detergents
  concentration at which optimal signal to noise ratio was achieved: 0.15%

## commercially available recombinant protein G, truncated to eliminate binding to human serum albumin
Human IgG (human)
  Kd: 483 nM

B1: PB15: rearranged full-length (FL) construct of Beta-lactamase, SEQ ID NO: 21 (protein)
chain: MHMHHHHHHEERFPMMSTFKVLLCGAVLSRIDAGQEQLGRRIHYSQNDLVEYSPVTEKHLTDGMTVRELCSAAITMSDNTAANLLLTTIGGPKELTAFLHNMGDHVTRLDRWEPELNEAIPNDERDTTMPVAMATTLRKLLTGELLTLASRQQLIDWMEADKVAGPLLRSALPAGWFIADKSGAGERGSRGIIAALGPDGKPSRIVVIYTTGSQATMDERNRQIAEIGASLIKHWGSGSGHPETLVKVKDAEDQLGARVGYIELDLNSGKILESFRH
modifications: PB15
[2]; [5]
  Purification (solubility): >+++
[2]; Purification Strategy: Native Ni-NTA
  Purification (solubility): <+

B2: PB15.3: rearranged construct of Beta-lactamase with substitutions M182T, I208T and F230Y, SEQ ID NO: 22 (protein)
chain: MHMHHHHHHEERFPMMSTFKVLLCGAVLSRIDAGQEQLGRRIHYSQNDLVEYSPVTEKHLTDGMTVRELCSAAITMSDNTAANLLLTTIGGPKELTAFLHNMGDHVTRLDRWEPELNEAIPNDERDTTTPVAMATTLRKLLTGELLTLASRQQLTDWMEADKVAGPLLRSALPAGWYIADKSGAGERGSRGIIAALGPDGKPSRIVVIYTTGSQATMDERNRQIAEIGASLIKHWGSGSGHPETLVKVKDAEDQLGARVGYIELDLNSGKILESFRH
modifications: PB15.3 (M182T, I208T, F230Y)
[2]; [5]
  Purification (solubility): >+++

B3: BLω-ProG: omega fragment fused via (G4S)3 linker to C2 domain of protein G, SEQ ID NO: 83 (protein)
chain: MHHHHHHGGGGSGSTYKLVINGKTLKGETTTEAVDAATAEKVFKQYANDNGVDGEWTYDDATKTFTVTETSGGGGSGGGGSGGGGSASELLTLASRQQLIDWMEADKVAGPLLRSALPAGWFIADKSGAGERGSRGIIAALGPDGKPSRIVVIYTTGSQATMDERDRQIAEIGASLIKHW
modifications: Protein G subunit omega reporter fragment displaying sequence of BLaProGconstruct
Human IgG
  rate of association: slower rate of association than the C2 domain
  rate of dissociation: slower rate of dissociation
Human IgG; read-out: dissociation constant (KD)
  Kd: 81 nM
[3]
  level of activity: highest level of activity

B4: PB11.2: alpha fragment construct containing substitutions V74T and M182T, SEQ ID NO: 6 (protein)
chain: MHPETLVKVKDAEDQLGARVGYIELDLNSGKILESFRPEERFPMMSTFKTLLCGAVLSRIDAGQEQLGRRIHYSQNDLVEYSPVTEKHLTDGMTVRELCSAAITMSDNTAANLLLTTIGGPKELTAFLHNMGDHVTRLDRWEPELNEAIPNDERDTTTPVAMATTLRKLLTGGGGGSHHHHHH
modifications: PB11.2 construct
[4]
  FPLC (aggregation): <+
